Laboratory results reported in PMC8637440, “Structural Modifications Yield Novel Insights Into the Intriguing Pharmacodynamic Potential of Anti-inflammatory Nitro-Fatty Acids” (Frontiers in Pharmacology, 2021).
Entries after “also recorded” stand apart in the source; their conditions may differ.

How the values were obtained:
COX-2 = target: T1, COX-2 (Homo sapiens, UniProt P35354); experiment: Cell-based COX-2 activity assay in IL-1β-stimulated A549 cells; parameters: endogenous in cells; host or cells: A549 stimulated with 1 ng/ml IL-1β; settings: 10 µM, 24 h, 1 ng/ml IL-1β
T1 sequence (P35354 18-604): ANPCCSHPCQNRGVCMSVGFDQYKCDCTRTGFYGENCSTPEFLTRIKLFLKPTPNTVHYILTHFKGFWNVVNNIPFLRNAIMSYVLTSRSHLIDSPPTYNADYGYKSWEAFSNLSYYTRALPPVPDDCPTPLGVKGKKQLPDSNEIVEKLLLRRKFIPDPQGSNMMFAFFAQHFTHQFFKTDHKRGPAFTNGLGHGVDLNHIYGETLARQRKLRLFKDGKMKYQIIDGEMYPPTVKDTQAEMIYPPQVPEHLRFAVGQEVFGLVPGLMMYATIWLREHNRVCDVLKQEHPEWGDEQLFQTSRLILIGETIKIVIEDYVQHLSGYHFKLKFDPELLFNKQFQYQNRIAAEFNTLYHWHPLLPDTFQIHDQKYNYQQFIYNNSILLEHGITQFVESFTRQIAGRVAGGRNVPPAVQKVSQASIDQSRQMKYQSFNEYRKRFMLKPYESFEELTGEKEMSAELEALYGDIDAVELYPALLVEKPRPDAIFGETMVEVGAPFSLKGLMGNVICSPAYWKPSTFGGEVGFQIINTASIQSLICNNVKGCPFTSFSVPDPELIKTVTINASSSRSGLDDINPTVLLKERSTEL
Description: The COX-2 inhibitory effects of NFA were investigated using a cell-based COX-2 activity assay performed using a Cyclooxygenase (COX) Activity Assay Kit (Fluorometric) from Abcam (Cambridge, UK; #ab204699). A549 cells (3 × 10^6) were seeded in 10-cm dishes and allowed to become adherent for 3 h. […] Then, cells were detached with a cell scraper and washed twice with 1× PBS before being resuspended in 100 µl lysis buffer (1× PBS containing 1% NP-40). The cells were incubated for 30 min with shaking on ice. After 3-min centrifugation at 12,000 ×g at 4°C, 20 µl supernatant was used for the COX activity assay. The assay was performed according to the manufacturer’s instructions in a white 96-well microplate with a clear bottom in duplicate. […] COX-2 activity was normalized to protein concentration.
Suppl. Figure 5: Effects of NFA on cellular COX-2 activity. COX-2 Activity of A549 cells […]
h. Cells were lysed, and COX-2 activity was measured using Cyclooxygenase (COX) Activity Assay Kit (Fluorometric) from Abcam. (A) NFA derivatives with different chain length. (B) NFA derivatives with different Michael acceptor position. Samples were normalized to protein concentration. Data are presented as mean + SD of n=4. COX, cyclooxygenase; DMSO, dimethyl sulfoxide NFA, nitro fatty acids .
(1 picture or pasted object on this page, not shown here)

PMNL = experiment: WST-1 viability assay in PMNL; assay type: cell-based, human; settings: 20 µM, 2 h (data not shown)
Description: Cell viability was analyzed with the WST-1 assay based on the cleavage of the stable tetrazolium salt WST-1 by the mitochondrial reductase system. Cells were seeded in the appropriate densities in a clear 96-well plate and settled overnight at 37°C in 5% CO2. […] Cell viability was analyzed by adding 10 µl WST-1 solution (Roche, Basel, Switzerland) and subsequently incubating the cells at 37°C for another 30–40 min. Absorbance was measured at 450 nm with a control wavelength at 620 nm using a plate reader.
5-LO, the key enzyme in leukotriene biosynthesis, catalyzes the first steps in leukotriene formation from AA. Oxidation of AA by 5-LO leads to the formation of 5-hydroperoxyeicosatetraenoic acid (5-HPETE), which can further be converted to LTA4 or reduced to 5-HETE. In the next step, LTA4 is hydrolyzed by LTA4 hydrolase to produce LTB4. Moreover, 12- and 15-LO catalyze the formation of 12- and 15-H(P)ETE [12- and 15-hydro(per)oxyeicosatetraenoic acid]. Nitroalkylation of 5-LO cysteines 416 and 418 by NFA leads to enzyme inhibition and beneficial anti-inflammatory effects, whereas no impact has been observed on 12- and 15-LO so far ([Awwad et al., 2014]). 5-LO product formation of purified PMNL was triggered by incubation with 2.5 µM of the calcium ionophore A23187 in the presence of 20 µM AA. […] Shifting the nitro group from position 9 to 10, or rather, towards position 11 (18.11.11), led to a decreased impact on 15-LO product formation (Table 3). […] Therefore, 5-LO product formation of purified PMNL after treatment with A23187 was determined in absence of AA which should strongly increase the 5-LO-inhibitory potency of competitive inhibitors. However, IC50 values were similar under these conditions strengthening the hypothesis of NFA as presumably non-competitive 5-LO inhibitors. Using a WST-1 viability assay we assessed possible cytotoxic effects of the strongest 5-LO-inhibitory NFA derivatives in PMNL including 18.4.4, 18.5.5, 18.6.6, 18.7.7, 18.8.8, 18.8.9, 18.9.9, 18.9.10, 18.10.10, 20.9.9, and 22.9.9.

Structure (SMILES)	effect on COX-2 activity in IL-1β-stimulated A549 cells (COX-2)	cytotoxic effects in PMNL (WST-1 viability) (PMNL)
CCC=C(CCCCCCCC(=O)O)[N+](=O)[O-] [12.9.9, 9-nitro-dodec-9-enoic acid]	failed increasing COX-2 product formation	–
CCCCC=C(CCCCCCCC(=O)O)[N+](=O)[O-] [14.9.9, 9-nitro-tetradec-9-enoic acid]	failed increasing COX-2 product formation	–
CCCCCCC=C(CCCCCCCC(=O)O)[N+](=O)[O-] [16.9.9, 9-nitro-hexadec-9-enoic acid]	failed increasing COX-2 product formation	–
CCCCCCCCCCCCCC=C(CCC(=O)O)[N+](=O)[O-] [18.4.4, 4-nitro-octadec-4-enoic acid]	–	failed to induce significant cytotoxic effects
CCCCCCCCCCCCC=C(CCCC(=O)O)[N+](=O)[O-] [18.5.5, 5-nitro-octadec-5-enoic acid]	–	failed to induce significant cytotoxic effects
CCCCCCCCCCCC=C(CCCCC(=O)O)[N+](=O)[O-] [18.6.6, 6-nitro-octadec-6-enoic acid]	induced COX-2 activity	failed to induce significant cytotoxic effects
CCCCCCCCCCC=C(CCCCCC(=O)O)[N+](=O)[O-] [18.7.7, 7-nitro-octadec-7-enoic acid]	–	failed to induce significant cytotoxic effects
CCCCCCCCCC=C(CCCCCCC(=O)O)[N+](=O)[O-] [18.8.8, 8-nitro-octadec-8-enoic acid]	induced COX-2 activity	failed to induce significant cytotoxic effects
CCCCCCCCCC(=CCCCCCCC(=O)O)[N+](=O)[O-] [18.8.9, 9-nitro-octadec-8-enoic acid]	–	failed to induce significant cytotoxic effects
CCCCCCCCC=C(CCCCCCCC(=O)O)[N+](=O)[O-] [18.9.9, 9-nitro-octadec-9-enoic acid]	no COX-2 inhibition	failed to induce significant cytotoxic effects
CCCCCCCCC(=CCCCCCCCC(=O)O)[N+](=O)[O-] [18.9.10, 10-nitro-octadec-9-enoic acid]	–	failed to induce significant cytotoxic effects
CCCCCCCC=C(CCCCCCCCC(=O)O)[N+](=O)[O-] [18.10.10, 10-nitro-octadec-10-enoic acid]	slight COX-2 inhibition	failed to induce significant cytotoxic effects
CCCCCCCCCCC=C(CCCCCCCC(=O)O)[N+](=O)[O-] [20.9.9, 9-nitro-eicos-9-enoic acid]	no COX-2 inhibition; also recorded: increased COX-2 product formation	failed to induce significant cytotoxic effects
